Measurements as given in patent US20210395327A1, “Growth Hormone-Releasing Hormone Antagonists and Uses Thereof” (United States Government As Represented By The Department …, priority 2019, published 2021).
Non-standard residues stand in square brackets, D forms with d. Residues, ends and D or L forms follow the SMILES beside them. *: point of attachment. Phe(F5) = N[C@@H](Cc1c(F)c(F)c(F)c(F)c1F)C(=O)O; hArg = N=C(N)NCCCC[C@H](N)C(=O)O; 12Ado = NCCCCCCCCCCCC(=O)O; Nle = CCCC[C@H](N)C(=O)O; Orn = NCCC[C@H](N)C(=O)O; Abu = CC[C@H](N)C(=O)O; PhAc = O=C(Cc1ccccc1)*

How the values were obtained:
[1] = system: breast cancer HCC-1806 xenograft; test: Xenograft tumor growth in nude mice, HCC-1806; format: in vivo; settings: Table 4K, Breast Ca HCC-1806, 5 weeks, 5 μg/day s.c.
Description: (§1) The peptides' activity was compared with GHRH antagonist MIA-602. All statistical analyzses were performed from comparing GHRA antagonists to non-treated tumor (control).
(§2) Peptides and chemicals. GHRH antagonists MIA-602 and AVR-GHRH antagonists (see Table 2 above) were synthesized by solid phase methods and purified by HPLC. The peptides were dissolved in DMSO and further diluted in 10% 1,2-propanediol. The final concentration of peptides was 50 µg/ml in 10% 1,2-propanediol containing 0.1% of DMSO.
(§3) Cell culture. Human cancer cell lines including pancreatic (PANC-1 and CFPAC-1), lung (HCC827 and H460), stomach (NCI-N87), prostate (PC3), brest (MX-1 and HCC-1806), colorectal (HT-29), and ovarian (SK-OV-3 and OVCAR-3) were obtained from the American Type Culture Collection (ATCC) and cultured at 37° C. in a humidified 95% air/5% CO2 atmosphere in the medium recommended by ATCC.
(§4) Xenograft models of human cancers in nude mice. Female athymic (NCr nu/nu) nude mice, 5- to 6-weeks-old, obtained from the Envigo labs (Tampa, Fla.), were housed in laminar airflow cabinets under pathogen-free conditions with a 12-h light/12-h dark schedule, and were fed autoclaved standard chow and water. To generate mice with xenografted tumors, tumor xenografts were initiated by subcutaneous (s.c.) injection of 107 human cancer cells into female nude mice. After about 4 weeks the resulting tumors were dissected and collected after removing necrosis tissues. The tumors were then cut into particles with size of 3 mm3 and transplanted s.c. by trocar needle into experimental animals. When tumors grew to the size of 50-60 mm3 (by volume), mice were randomized into groups and treated daily for 4-8 weeks by subcutaneous administration of 5 μg of GHRH antagonists MIA-602 or AVR-compounds (2-10 μg as indicated), or vehicle solutions (0.1% DMSO in 10% 1,2-propanediol) respectively. Tumor sizes were measured weekly.
(§5) Statistical analysis. One-way ANOVA followed by Bonferroni comparison were performed. Data are expressed as Mean±SEM. To determine statistical significance between animal groups, two-tailed Student's t-test was conducted. Differences were considered significant when p<0.05.
(§6) Results. […] FIG. 1A-N represents in vivo inhibition of tumor growth during the treatment with GHRH antagonist MIA-602 and selected AVR antagonists in nude mice xenografted with various human tumors including pancreatic cancer PANC-1 (FIG. 1A) and CFPAC-1 (FIG. 1I); lung cancer HCC827 (FIGS. 1B, C) and H460 (FIG. 1H); stomach cancer N87 (FIGS. 1D-F); colon cancer HT-29 (FIG. 1G); breast cancer MX-1 and HCC-1806 (FIGS. 1J, K); ovarian cancer SK-OV-3 and OVACAR-3 (FIGS. 1 L, M) and prostate cancer PC3 (FIG. 1N). See also Table 5.

[2] = system: ovarian cancer OVCAR-3 xenograft; test: Xenograft tumor growth in nude mice, OVCAR-3; format: in vivo; settings: Table 4M, Ovarian Ca OVCAR-3, 9 weeks, 5 μg/day s.c.
Description: as §1, §2, §3, §4, §5, §6

[3] = system: pancreatic cancer PANC-1 xenograft; test: Xenograft tumor growth in nude mice, PANC-1; format: in vivo; settings: Table 4A, Pancreatic Ca PANC-1, 7 weeks, 5 μg/day s.c.
Description: as §1, §2, §3, §4, §5, §6

[4] = system: J82 urothelial cancer cells; test: In vitro cell viability, J82; format: cell-based, human; settings: antagonist 5 μM for 72 h, cell proliferation assay; MIA602 = 1
Procedure, shortened: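 Cells grown to ~60% confluence, serum-starved 24 h in 0.5% FBS, then treated with antagonists at 1, 2.5 or 5 μM or vehicle (0.1% DMSO) in quintuplicate for 72 h, medium replaced every 48 h. Viability read by MTS-type CellTiter 96 AQueous One assay; expressed as inhibitory potency relative to MIA602.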

[5] = system: SK-OV-3 ovarian cancer cells; test: In vitro cell viability, SK-OV-3; format: cell-based, human; settings: Table 3B; * at 2 μM for 72 H; MIA-602 = 1
Description: The inhibitory effects of the various synthesized GHRH antagonists were tested in cell proliferation assays in various human cancer cell lines including stomach cancer (KATOIII, N87), colon cancer (HT-29), urothelial cancer (J82, RT4), pancreatic cancer (PANC-1, CFPAC-1), prostatic cancer (PC3), breast cancer (MX-1, HCC1806), ovarian cancer (SK-OV-3, OVCAR-3) and lung cancer (HCC827, H460).
Cell culture. Human cancer cell lines including pancreatic (PANC-1 and CFPAC-1), lung (HCC827 and H460), stomach (NCI-N87 and KATOIII), urothelial (J82, RT4), prostatic (PC3), breast (MX-1 and HCC 1806), colorectal (HT-29), and ovarian (SK-OV-3 and OVCAR-3) were obtained from the American Type Culture Collection (ATCC) and cultured at 37° C. in a humidified 95% air/5% CO2 atmosphere in the medium recommended by ATCC.
In vitro cell viability. Cell viability was analyzed as follows: cancer cells including pancreatic (PANC-1 and CFPAC-1), lung (HCC827 and H460), stomach (NCI-N87 and KATOIII), urothelial (J82, RT4), prostatic (PC3) and breast (MX-1 and HCC 1806), colorectal (HT-29) and ovarian (SK-OV-3 and OVCAR-3) were grown on 96 well plates to ˜60% confluence, the cells were starved for 24 h in culture medium containing 0.5% FBS. Cells were then treated with GHRH antagonists MIA602 AVR compounds at concentrations of 1, 2.5 or 5 μM, or vehicle (0.1% DMSO) in quintuplicates for 72 hours. The medium was replaced every 48 hours. Cell viability was measured using CellTiter 96 aqueous one solution kit (Promega). Inhibitory effects of tested AVR compounds in comparison to that of MIA602 are presented as inhibitory potency.
Inhibitory effects of selected AVR compounds in comparison to that of MIA602 are presented as inhibitory potency (e.g., percentage of inhibition). […] The cell lines tested including lung cancer HCC827 (FIG. 2A), pancreatic cancer CFPAC-1 (FIG. 2B), stomach cancer N87 (FIG. 2C), colon cancer HT-29 (FIG. 2D), breast cancers MX-1 and HCC1806 (FIGS. 2 E, F). […]

[6] = system: colon cancer HT-29 xenograft; test: Xenograft tumor growth in nude mice, HT-29; format: in vivo; settings: Table 4G, Colon Ca HT-29, 6 weeks, 5 μg/day s.c.
Description: as §1, §2, §3, §4, §5, §6

[7] = system: HCC1806 breast cancer cells; test: In vitro cell viability, HCC1806; format: cell-based, human
Procedure, shortened: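 Potency is reported as percent inhibition of viability compared with the reference antagonist MIA602, measured with CellTiter 96 aqueous one solution reagent. Serum-starved cells (0.5% FBS, 24 h) were treated for 72 h, mostly at 5 μM, otherwise 2 μM.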

Structure (SMILES): CCCC[C@H](NC(=O)[C@@H](NC(=O)[C@H](CC(=O)O)NC(=O)[C@H](CCC(N)=O)NC(=O)[C@H](CC(C)C)NC(=O)[C@H](CC(C)C)NC(=O)[C@H](CCCN)NC(=O)[C@H](Cc1c[nH]cn1)NC(=O)[C@H](C)NC(=O)[C@H](CO)NC(=O)[C@H](CC(C)C)NC(=O)[C@H](CCC(N)=O)NC(=O)[C@H](CC)NC(=O)[C@H](CC(C)C)NC(=O)[C@@H](NC(=O)[C@H](CCCN)NC(=O)[C@H](Cc1c[nH]cn1)NC(=O)[C@H](Cc1ccc(OC)cc1)NC(=O)[C@H](CCCCNC(=N)N)NC(=O)[C@H](C)NC(=O)[C@@H](NC(=O)[C@H](Cc1c(F)c(F)c(F)c(F)c1F)NC(=O)[C@@H](NC(=O)[C@H](C)NC(=O)[C@H](CC(=O)O)NC(=O)[C@@H](CCCNC(=N)N)NC(=O)[C@H](Cc1ccc(O)cc1)NC(=O)CCCCCCCCCCCNC(=O)Cc1ccccc1)[C@@H](C)CC)[C@@H](C)O)C(C)C)[C@@H](C)CC)C(=O)N[C@H](CCCNC(=N)N)C(=O)N[C@@H](CCCCNC(=N)N)C(N)=O [MIA-602, PhAC-Ada, Tyr D-Arg, Asp, Ala, Ile, 5FPhe, Thr, Ala, Har, Tyr(Me), His, Orn, Val, Leu, Abu, Gin, Leu, Ser, Ala, His, Om, Leu, Leu, Gin, Asp, Ile; Nle, D-Arg, Har NH2, reference compound] ({PhAc-12Ado}-Y[dR]DAI[Phe(F5)]TA[hArg]Y(Me)H[Orn]VL[Abu]QLSAH[Orn]LLQDI[Nle][dR][hArg]-NH2)
- Tumor Growth % [1]: 529.4%
- % Inhibition ([1]; vs control): 55.7%
- Tumor Size (mm3) [2]: 267.2 mm3
- % Inhibition ([2]; vs control): 44.4%
- Tumor Growth % [3]: 1572.7%
- % Inhibition ([3]; vs control): 41.1%
- relative inhibitory potency in comparison to MIA-602, Urothelial J82 [4]: 1
- In vitro relative inhibitory potency in comparison to MIA-602, SKOV-3 [5]: 1
- Tumor Size (mm^3) [6]: 582.10 mm^3
- % Inhibition ([6]; vs control): 16.5%
- In vitro relative inhibitory potency in comparison to MIA-602, HCC-1806 ([7]; Table 3B, 5 μM for 72 H, MIA-602 = 1): 1
- relative inhibitory potency in comparison to MIA-602, Breast IICC1806 ([7]; antagonist 5 μM for 72 h, cell proliferation assay, MIA602 = 1): 1
